Experimental data from US20220265629A1, “TREATMENT OF SYSTOLIC DYSFUNCTION AND HEART FAILURE WITH REDUCED EJECTION FRACTION WITH THE COMPOUND (R)-4-(1-((3-(DIFLUOROMETHYL)-1-METHYL-1H-PYRAZOL-4-YL)SULFONYL)-1-FLUOROETHYL)-N-(ISOXAZOL-3-YL)PIPERIDINE-1-CARBOXAMIDE” (MyoKardia, Inc., priority 2019, published 2022).
Read-outs that look alike come from different tables or passages of the source.

Assay: Single ascending oral dose study in healthy volunteers: plasma pharmacokinetics
Format: in vivo, human
Conditions: human, plasma, oral; for concentration at 48 h: 48 Hours Postdose; for concentration at 72 h: 72 Hours Postdose; for concentration at 6 h: 6 Hours Postdose; for concentration at 12 h: 12 Hours Postdose; for concentration at 24 h: 24 Hours Postdose
From the text: This example describes the first-in-human study of Compound I. Based on its mechanism of action, Compound I may offer a targeted therapy for patients with DCM caused by genetic or nongenetic mechanisms. The study was a randomized, double-blind, placebo-controlled, sequential group, single-ascending (oral) close study in healthy subjects aged 18-55 years. Eight dosing cohorts, each comprising eight healthy subjects, were enrolled. Within each cohort, subjects were randomized 6:2 to Compound I:placebo.
Subjects were resident at the clinical site for up to 5 days and 4 nights, from Day −1 (the day before dosing) to Day 4, and received a single dose of Compound I or placebo on Day 1. ECG telemetry was initiated 1 hour preclose and continued through 48 hours postclose (Day 3). Any subject with a preclose resting HR≥80 beats per minute was considered ineligible and not treated. […] Subjects returned for a safety follow-up visit 7 days (±1 day) after dosing.
All randomized study subjects received either Compound I or matching placebo as a single oral dose after a fasting period of at least 6 hours. Compound I drug substance is a crystalline, free-base, synthetic molecule with a molecular weight of 435.4 g/mol.
Compound I was provided as a powder for oral suspension. Placebo was provided as calcium carbonate powder. Both treatments were closed orally as a suspension. The suspension was made using Ora-Plus® suspending vehicle (Perrigo) and a cherry syrup flavoring vehicle (Humco), mixed 50% to 50%. The suspension was followed by approximately 100 mL water. The suspension was made up within 14 days from the time in which it was closed which was consistent with the stability data on the suspension. The suspension was made up so the volume administered to the subjects who received Compound I was the same at 20 mL.
Each subject received a close according to the cohort in which they were enrolled. Cohorts were enrolled sequentially, with each cohort receiving an escalated dose of Compound I. The closes administered were 3 mg, 10 mg, 25 mg, 50 mg, 100 mg, 175 mg, 350 mg, and 525 mg, respectively.
The concentrations of Compound I in human plasma and urine were quantitated by high performance liquid chromatography with tandem mass spectrometric detection (LC MS/MS) (Biological sample analysis study report Alturas AD17-726). Plasma samples were extracted by protein precipitation with acetonitrile containing internal standard MYK-5654. The calibration curves were linear over concentration range of 0.500 to 1000 ng/mL with a lower limit of quantification (LLOQ) of 0.500 ng/mL.
The PK Population included all subjects who received Compound I. Blood samples were collected for PK assessments. The actual timing of the samples may have been modified and/or up to an additional 2 samples may have been requested by the SRC after review of the data from previous cohorts. It was important that PK sampling occurred as closely as possible to the scheduled time (±10%). Both blood and urine samples were used for PK assessments.
In addition, for subjects who received placebo, a single plasma sample near the predicted tmax of Compound I was evaluated to confirm the lack of circulating Compound I. Plasma concentration data for Compound I was summarized using descriptive statistics, including mean, standard deviation (SD), median, minimum, and maximum values, and percent coefficient of variation. Other PK parameters included (but were not limited to) Cmax, tmax, AUC, t1/2, and MRT. Additionally, the apparent terminal-phase terminal half-life was calculated. The close proportionality of AUC and Cmax was explored.

[1] = 10 mg, 10 mg, read-out: Plasma concentration, Median
[2] = 25 mg, 25 mg, read-out: Plasma concentration, Geometric Mean
[3] = 25 mg, 25 mg, read-out: Plasma concentration, Mean
[4] = 25 mg, 25 mg, read-out: Plasma concentration, Median
[5] = 50 mg, 50 mg, read-out: Plasma concentration, Geometric Mean
[6] = 50 mg, 50 mg, read-out: Plasma concentration, Mean
[7] = 50 mg, 50 mg, read-out: Plasma concentration, Median

## Cn1cc(S(=O)(=O)[C@@](C)(F)C2CCN(C(=O)Nc3ccon3)CC2)c(C(F)F)n1 [Compound I, (R)-4-(1-((3-(difluoromethyl)-1-methyl-1H-pyrazol-4-yl)sulfonyl)-1-fluoroethyl)-N-(isoxazol-3-yl)piperidine-1-carboxamide]
[1]
  concentration at 48 h: 15.4 ng/mL
  concentration at 72 h: 4.01 ng/mL
10 mg, 10 mg, read-out: Plasma concentration, Geometric Mean
  concentration at 72 h: 4.5 ng/mL
10 mg, 10 mg, read-out: Plasma concentration, Mean
  concentration at 72 h: 4.93 ng/mL
10 mg, read-out: AUC0-24, Geometric Mean
  AUC(0-t): 2120 ng·h/mL
10 mg, read-out: AUC0-24, Mean
  AUC(0-t): 2140 ng·h/mL
10 mg, read-out: AUC0-24, Median
  AUC(0-t): 2250 ng·h/mL
10 mg, read-out: AUC0-48, Geometric Mean
  AUC(0-t): 2980 ng·h/mL
10 mg, read-out: AUC0-48, Mean
  AUC(0-t): 3030 ng·h/mL
10 mg, read-out: AUC0-48, Median
  AUC(0-t): 3190 ng·h/mL
10 mg, read-out: AUC0-last, Geometric Mean
  AUC(0-t): 3280 ng·h/mL
10 mg, read-out: AUC0-last, Mean
  AUC(0-t): 3350 ng·h/mL
10 mg, read-out: AUC0-last, Median
  AUC(0-t): 3420 ng·h/mL
10 mg, read-out: AUC0-∞, Geometric Mean
  AUC(0-inf): 3350 ng·h/mL
10 mg, read-out: AUC0-∞, Mean
  AUC(0-inf): 3410 ng·h/mL
10 mg, read-out: AUC0-∞, Median
  AUC(0-inf): 3480 ng·h/mL
10 mg, read-out: Cmax, Geometric Mean
  Cmax: 138 ng/mL
10 mg, read-out: Cmax, Mean
  Cmax: 139 ng/mL
10 mg, read-out: Cmax, Median
  Cmax: 146 ng/mL
10 mg, read-out: Half-Life Lambda Z, Geometric Mean (converted)
  half-life: 13.2 h
10 mg, read-out: Half-Life Lambda Z, Mean (converted)
  half-life: 13.4 h
10 mg, read-out: Half-Life Lambda Z, Median (converted)
  half-life: 12.9 h
10 mg, read-out: Mean Residence Time, Geometric Mean
  MRT: 21.1 h
10 mg, read-out: Mean Residence Time, Mean
  MRT: 21.2 h
10 mg, read-out: Mean Residence Time, Median
  MRT: 20.1 h
10 mg, read-out: Tmax, Geometric Mean
  Tmax: 4.8 h
10 mg, read-out: Tmax, Mean
  Tmax: 4.85 h
10 mg, read-out: Tmax, Median
  Tmax: 5 h
10 mg, read-out: Vz/F, Geometric Mean
  Vd/F: 57.1 L
10 mg, read-out: Vz/F, Mean
  Vd/F: 58.5 L
10 mg, read-out: Vz/F, Median
  Vd/F: 55.8 L
[2]
  concentration at 6 h: 281 ng/mL
  concentration at 12 h: 205 ng/mL
  concentration at 24 h: 114 ng/mL
  concentration at 48 h: 33.3 ng/mL
  concentration at 72 h: 8.4 ng/mL
[3]
  concentration at 6 h: 286 ng/mL
  concentration at 12 h: 211 ng/mL
  concentration at 24 h: 118 ng/mL
  concentration at 48 h: 35.8 ng/mL
  concentration at 72 h: 9.78 ng/mL
[4]
  concentration at 6 h: 286 ng/mL
  concentration at 12 h: 223 ng/mL
  concentration at 24 h: 124 ng/mL
  concentration at 48 h: 35.5 ng/mL
  concentration at 72 h: 8.51 ng/mL
25 mg, read-out: AUC0-24, Geometric Mean
  AUC(0-t): 4550 ng·h/mL
25 mg, read-out: AUC0-24, Mean
  AUC(0-t): 4650 ng·h/mL
25 mg, read-out: AUC0-24, Median
  AUC(0-t): 4850 ng·h/mL
25 mg, read-out: AUC0-48, Geometric Mean
  AUC(0-t): 6320 ng·h/mL
25 mg, read-out: AUC0-48, Mean
  AUC(0-t): 6500 ng·h/mL
25 mg, read-out: AUC0-48, Median
  AUC(0-t): 6890 ng·h/mL
25 mg, read-out: AUC0-last, Geometric Mean
  AUC(0-t): 6920 ng·h/mL
25 mg, read-out: AUC0-last, Mean
  AUC(0-t): 7160 ng·h/mL
25 mg, read-out: AUC0-last, Median
  AUC(0-t): 7420 ng·h/mL
25 mg, read-out: AUC0-∞, Geometric Mean
  AUC(0-inf): 7050 ng·h/mL
25 mg, read-out: AUC0-∞, Mean
  AUC(0-inf): 7290 ng·h/mL
25 mg, read-out: AUC0-∞, Median
  AUC(0-inf): 7570 ng·h/mL
25 mg, read-out: Cmax, Geometric Mean
  Cmax: 298 ng/mL
25 mg, read-out: Cmax, Mean
  Cmax: 304 ng/mL
25 mg, read-out: Cmax, Median
  Cmax: 313 ng/mL
25 mg, read-out: Half-Life Lambda Z, Geometric Mean (converted)
  half-life: 13.1 h
25 mg, read-out: Half-Life Lambda Z, Mean (converted)
  half-life: 13.3 h
25 mg, read-out: Half-Life Lambda Z, Median (converted)
  half-life: 12.7 h
25 mg, read-out: Mean Residence Time, Geometric Mean
  MRT: 20.6 h
25 mg, read-out: Mean Residence Time, Mean
  MRT: 20.8 h
25 mg, read-out: Mean Residence Time, Median
  MRT: 20.1 h
25 mg, read-out: Tmax, Geometric Mean
  Tmax: 4.64 h
25 mg, read-out: Tmax, Mean
  Tmax: 4.67 h
25 mg, read-out: Tmax, Median
  Tmax: 5 h
25 mg, read-out: Vz/F, Geometric Mean
  Vd/F: 67.3 L
25 mg, read-out: Vz/F, Mean
  Vd/F: 68.6 L
25 mg, read-out: Vz/F, Median
  Vd/F: 66.5 L
[5]
  concentration at 6 h: 424 ng/mL
  concentration at 12 h: 317 ng/mL
  concentration at 24 h: 175 ng/mL
  concentration at 48 h: 49.5 ng/mL
  concentration at 72 h: 13.5 ng/mL
[6]
  concentration at 6 h: 431 ng/mL
  concentration at 12 h: 322 ng/mL
  concentration at 24 h: 178 ng/mL
  concentration at 48 h: 51.9 ng/mL
  concentration at 72 h: 15.2 ng/mL
[7]
  concentration at 6 h: 420 ng/mL
  concentration at 12 h: 297 ng/mL
  concentration at 24 h: 174 ng/mL
  concentration at 48 h: 57.4 ng/mL
  concentration at 72 h: 18.8 ng/mL
50 mg, read-out: AUC0-24, Geometric Mean
  AUC(0-t): 7210 ng·h/mL
50 mg, read-out: AUC0-24, Mean
  AUC(0-t): 7300 ng·h/mL
50 mg, read-out: AUC0-24, Median
  AUC(0-t): 6730 ng·h/mL
50 mg, read-out: AUC0-48, Geometric Mean
  AUC(0-t): 9930 ng·h/mL
50 mg, read-out: AUC0-48, Mean
  AUC(0-t): 10100 ng·h/mL
50 mg, read-out: AUC0-48, Median
  AUC(0-t): 9500 ng·h/mL
50 mg, read-out: AUC0-last, Geometric Mean
  AUC(0-t): 11100 ng·h/mL
50 mg, read-out: AUC0-last, Mean
  AUC(0-t): 11200 ng·h/mL
50 mg, read-out: AUC0-last, Median
  AUC(0-t): 11200 ng·h/mL
50 mg, read-out: AUC0-∞, Geometric Mean
  AUC(0-inf): 11200 ng·h/mL
50 mg, read-out: AUC0-∞, Mean
  AUC(0-inf): 11300 ng·h/mL
50 mg, read-out: AUC0-∞, Median
  AUC(0-inf): 11200 ng·h/mL
50 mg, read-out: Cmax, Geometric Mean
  Cmax: 490 ng/mL
50 mg, read-out: Cmax, Mean
  Cmax: 500 ng/mL
50 mg, read-out: Cmax, Median
  Cmax: 470 ng/mL
50 mg, read-out: Half-Life Lambda Z, Geometric Mean (converted)
  half-life: 13.4 h
50 mg, read-out: Half-Life Lambda Z, Mean (converted)
  half-life: 13.6 h
50 mg, read-out: Half-Life Lambda Z, Median (converted)
  half-life: 13.8 h
50 mg, read-out: Mean Residence Time, Geometric Mean
  MRT: 20.8 h
50 mg, read-out: Mean Residence Time, Mean
  MRT: 21 h
50 mg, read-out: Mean Residence Time, Median
  MRT: 21.5 h
50 mg, read-out: Tmax, Geometric Mean
  Tmax: 4.66 h
50 mg, read-out: Tmax, Mean
  Tmax: 4.69 h
50 mg, read-out: Tmax, Median
  Tmax: 5 h
50 mg, read-out: Vz/F, Geometric Mean
  Vd/F: 86.6 L
